Assay results published in patent US7750003B2, “Compounds-943” (AstraZeneca AB, priority 2006, dated 2010).

target: recombinant mTOR (FLAG-tagged, residues 1362-2549) (Homo sapiens, UniProt P42345); test: In vitro mTOR kinase assay (Test (a), AlphaScreen); type: biochemical; conditions: ATP 20 μM, read-out: Test (a): IC50 versus mTOR kinase
In short: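 AlphaScreen read-out: a phospho-T389 p70 S6K antibody on acceptor beads captures the phosphorylated biotin-peptide on donor beads, with signal loss indicating inhibition.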

Chain of recombinant mTOR (FLAG-tagged, residues 1362-2549) (P42345 1362-2549): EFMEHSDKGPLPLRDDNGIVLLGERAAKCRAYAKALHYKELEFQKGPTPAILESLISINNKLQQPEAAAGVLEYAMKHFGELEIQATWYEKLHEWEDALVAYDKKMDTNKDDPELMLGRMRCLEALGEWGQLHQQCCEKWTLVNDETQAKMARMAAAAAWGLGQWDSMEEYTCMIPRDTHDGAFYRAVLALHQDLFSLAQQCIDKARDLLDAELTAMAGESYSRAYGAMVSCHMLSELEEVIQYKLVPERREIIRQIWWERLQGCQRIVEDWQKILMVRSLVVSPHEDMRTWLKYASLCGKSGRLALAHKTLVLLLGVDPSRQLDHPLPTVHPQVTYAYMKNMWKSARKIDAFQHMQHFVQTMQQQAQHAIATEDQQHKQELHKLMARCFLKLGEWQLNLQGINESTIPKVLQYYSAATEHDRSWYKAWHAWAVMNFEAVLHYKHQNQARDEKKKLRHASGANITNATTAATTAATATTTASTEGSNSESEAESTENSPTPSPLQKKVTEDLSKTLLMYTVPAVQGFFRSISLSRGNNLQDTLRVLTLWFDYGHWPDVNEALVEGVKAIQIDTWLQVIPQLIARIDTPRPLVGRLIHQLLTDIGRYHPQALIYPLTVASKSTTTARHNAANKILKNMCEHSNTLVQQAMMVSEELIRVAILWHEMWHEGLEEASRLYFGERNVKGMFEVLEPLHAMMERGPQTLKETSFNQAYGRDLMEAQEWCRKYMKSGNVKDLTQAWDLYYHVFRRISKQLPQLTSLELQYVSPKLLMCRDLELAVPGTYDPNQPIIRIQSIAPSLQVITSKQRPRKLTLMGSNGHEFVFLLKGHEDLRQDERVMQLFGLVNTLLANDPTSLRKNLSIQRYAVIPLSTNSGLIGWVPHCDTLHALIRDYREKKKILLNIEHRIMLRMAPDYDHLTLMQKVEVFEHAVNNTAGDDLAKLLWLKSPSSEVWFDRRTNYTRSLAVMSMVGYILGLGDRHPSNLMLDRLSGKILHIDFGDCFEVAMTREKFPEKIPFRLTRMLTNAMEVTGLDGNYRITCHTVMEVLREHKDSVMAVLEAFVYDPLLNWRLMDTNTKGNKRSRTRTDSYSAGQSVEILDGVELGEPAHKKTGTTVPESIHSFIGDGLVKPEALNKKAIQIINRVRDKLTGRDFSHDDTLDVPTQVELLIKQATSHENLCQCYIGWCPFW

Row | Compound | IC50 [nM]
1 | CN1CCC(NC(=O)Nc2ccc(-c3nc(N4CCOCC4)cc(C(C)(C)S(C)(=O)=O)n3)cc2)CC1 [Example 21d, 3-(1-methyl-4-piperidyl)-1-[4-[4-(2-methylsulfonylpropan-2-yl)-6-morpholin-4-yl-pyrimidin-2-yl]phenyl]urea] | 270
2 | C[C@H]1COCCN1c1cc(CS(C)(=O)=O)nc(-c2ccc(NC(=O)Nc3ncccn3)cc2)n1 [Example 22a, 1-[4-[4-[(3S)-3-methylmorpholin-4-yl]-6-(methylsulfonylmethyl)pyrimidin-2-yl]phenyl]-3-pyrimidin-2-yl-urea] | 60
3 | Cc1cccc(C)c1NC(=O)Nc1ccc(-c2nc(CS(C)(=O)=O)cc(N3CCOC[C@@H]3C)n2)cc1 [Example 22b, 1-(2,6-dimethylphenyl)-3-[4-[4-[(3S)-3-methylmorpholin-4-yl]-6-(methylsulfonylmethyl)pyrimidin-2-yl]phenyl]urea] | 1600
4 | Cc1cc(NC(=O)Nc2ccc(-c3nc(CS(C)(=O)=O)cc(N4CCOC[C@@H]4C)n3)cc2)no1 [Example 22d, 3-[4-[4-[(3S)-3-methylmorpholin-4-yl]-6-(methylsulfonylmethyl)pyrimidin-2-yl]phenyl]-1-(5-methyl-1,2-oxazol-3-yl)urea] | 4.8
5 | Cc1oncc1NC(=O)Nc1ccc(-c2nc(CS(C)(=O)=O)cc(N3CCOC[C@@H]3C)n2)cc1 [Example 22e, 3-[4-[4-[(3S)-3-methylmorpholin-4-yl]-6-(methylsulfonylmethyl)pyrimidin-2-yl]phenyl]-1-(5-methyl-1,2-oxazol-4-yl)urea] | 560
6 | C[C@H]1COCCN1c1cc(CS(C)(=O)=O)nc(-c2ccc(NC(=O)Nc3cnn(C)c3)cc2)n1 [Example 22f, 1-[4-[4-[(3S)-3-methylmorpholin-4-yl]-6-(methylsulfonylmethyl)pyrimidin-2-yl]phenyl]-3-(1-methylpyrazol-4-yl)urea] | 91
7 | C[C@H]1COCCN1c1cc(CS(C)(=O)=O)nc(-c2ccc(NC(=O)Nc3cc[nH]c(=O)c3)cc2)n1 [Example 22g, 1-[4-[4-[(3S)-3-methylmorpholin-4-yl]-6-(methylsulfonylmethyl)pyrimidin-2-yl]phenyl]-3-(2-oxo-1H-pyridin-4-yl)urea] | 4.5
8 | Cc1nn(C)c(C)c1NC(=O)Nc1ccc(-c2nc(CS(C)(=O)=O)cc(N3CCOC[C@@H]3C)n2)cc1 [Example 22h, 3-[4-[4-[(3S)-3-methylmorpholin-4-yl]-6-(methylsulfonylmethyl)pyrimidin-2-yl]phenyl]-1-(1,3,5-trimethylpyrazol-4-yl)urea] | 1500
9 | Cc1n[nH]c(C)c1NC(=O)Nc1ccc(-c2nc(CS(C)(=O)=O)cc(N3CCOC[C@@H]3C)n2)cc1 [Example 22i, 1-(3,5-dimethyl-1H-pyrazol-4-yl)-3-[4-[4-[(3S)-3-methylmorpholin-4-yl]-6-(methylsulfonylmethyl)pyrimidin-2-yl]phenyl]urea] | 4300
10 | CNC(=O)NC1CCN(c2nc(CS(C)(=O)=O)cc(N3CCOC[C@@H]3C)n2)CC1 [Example 23, 3-Methyl-1-[1-[4-[(3S)-3-methylmorpholin-4-yl]-6-(methylsulfonylmethyl)pyrimidin-2-yl]-4-piperidyl]urea] | 5600
11 | CCNC(=O)NC1CCN(c2nc(CS(C)(=O)=O)cc(N3CCOC[C@@H]3C)n2)CC1 [Example 23a, 1-ethyl-3-[1-[4-[(3S)-3-methylmorpholin-4-yl]-6-(methylsulfonylmethyl)pyrimidin-2-yl]-4-piperidyl]urea] | 3700
12 | CNC(=O)Nc1c(F)cc(-c2nc(N3CCOC[C@@H]3C)cc(C(C)(C)S(C)(=O)=O)n2)cc1F [Example 24ab, 1-[2,6-difluoro-4-[4-[(3S)-3-methylmorpholin-4-yl]-6-(2-methylsulfonylpropan-2-yl)pyrimidin-2-yl]phenyl]-3-methyl-urea] | 42
13 | C[C@H]1COCCN1c1cc(C(C)(C)S(C)(=O)=O)nc(-c2cc(F)c(NC(=O)NC3CC3)c(F)c2)n1 [Example 24ad, 3-cyclopropyl-1-[2,6-difluoro-4-[4-[(3S)-3-methylmorpholin-4-yl]-6-(2-methylsulfonylpropan-2-yl)pyrimidin-2-yl]phenyl]urea] | 510
14 | C[C@H]1COCCN1c1cc(C(C)(C)S(C)(=O)=O)nc(-c2cc(F)c(NC(=O)NCc3cnn(C)c3)c(F)c2)n1 [Example 24ae, 1-[2,6-difluoro-4-[4-[(3S)-3-methylmorpholin-4-yl]-6-(2-methylsulfonylpropan-2-yl)pyrimidin-2-yl]phenyl]-3-[(1-methylpyrazol-4-yl)methyl]urea] | 240

Continued, values first:

Row | IC50 [nM] | Compound
15 | 360 | CC(C)(c1cc(N2CCOCC2)nc(-c2ccc(NC(=O)NC3CC3)cc2)n1)S(C)(=O)=O [Example 21b, 3-cyclopropyl-1-[4-[4-(2-methylsulfonylpropan-2-yl)-6-morpholin-4-yl-pyrimidin-2-yl]phenyl]urea]
16 | 480 | CN(C)CCNC(=O)Nc1ccc(-c2nc(N3CCOCC3)cc(C(C)(C)S(C)(=O)=O)n2)cc1 [Example 21c, 3-(2-dimethylaminoethyl)-1-[4-[4-(2-methylsulfonylpropan-2-yl)-6-morpholin-4-yl-pyrimidin-2-yl]phenyl]urea]
17 | 1000 | COCCNC(=O)Nc1ccc(-c2nc(N3CCOCC3)cc(C(C)(C)S(C)(=O)=O)n2)cc1 [Example 21e, 3-(2-methoxyethyl)-1-[4-[4-(2-methylsulfonylpropan-2-yl)-6-morpholin-4-yl-pyrimidin-2-yl]phenyl]urea]
18 | 17 | CNC(=O)Nc1ccc(-c2nc(N3CCOC[C@@H]3C)cc(C(C)(C)S(C)(=O)=O)n2)cc1 [Example 21f, 3-methyl-1-[4-[4-[(3S)-3-methylmorpholin-4-yl]-6-(2-methylsulfonylpropan-2-yl)pyrimidin-2-yl]phenyl]urea]
19 | 20 | CCNC(=O)Nc1ccc(-c2nc(N3CCOC[C@@H]3C)cc(C(C)(C)S(C)(=O)=O)n2)cc1 [Example 21g, 1-ethyl-3-[4-[4-[(3S)-3-methylmorpholin-4-yl]-6-(2-methylsulfonylpropan-2-yl)pyrimidin-2-yl]phenyl]urea]
20 | 76 | C[C@H]1COCCN1c1cc(C(C)(C)S(C)(=O)=O)nc(-c2ccc(NC(=O)NCCN(C)C)cc2)n1 [Example 21i, 3-(2-dimethylaminoethyl)-1-[4-[4-[(3S)-3-methylmorpholin-4-yl]-6-(2-methylsulfonylpropan-2-yl)pyrimidin-2-yl]phenyl]urea]
21 | 510 | C[C@H]1COCCN1c1cc(C(C)(C)S(C)(=O)=O)nc(-c2ccc(NC(=O)NC3CCN(C)CC3)cc2)n1 [Example 21j, 1-[4-[4-[(3S)-3-methylmorpholin-4-yl]-6-(2-methylsulfonylpropan-2-yl)pyrimidin-2-yl]phenyl]-3-(1-methyl-4-piperidyl)urea]
22 | 310 | COCCNC(=O)Nc1ccc(-c2nc(N3CCOC[C@@H]3C)cc(C(C)(C)S(C)(=O)=O)n2)cc1 [Example 21k, 3-(2-methoxyethyl)-1-[4-[4-[(3S)-3-methylmorpholin-4-yl]-6-(2-methylsulfonylpropan-2-l)pyrimidin-2-yl]phenyl]urea]
23 | 340 | C[C@H]1COCCN1c1cc(CS(C)(=O)=O)nc(-c2ccc(NC(=O)NCCc3ccccn3)cc2)n1 [Example 24, 1-[4-[4-[(3S)-3-Methylmorpholin-4-yl]-6-(methylsulfonylmethyl)pyrimidin-2-yl]phenyl]-3-(2-pyridin-2-ylethyl)urea]
24 | 82 | C[C@H]1COCCN1c1cc(CS(C)(=O)=O)nc(-c2ccc(NC(=O)NCc3cccnc3)cc2)n1 [Example 24a, 1-[4-[4-[(3S)-3-methylmorpholin-4-yl]-6-(methylsulfonylmethyl)pyrimidin-2-yl]phenyl]-3-(pyridin-3-ylmethyl)urea]
25 | 48 | CCNC(=O)Nc1c(F)cc(-c2nc(N3CCOC[C@@H]3C)cc(C(C)(C)S(C)(=O)=O)n2)cc1F [Example 24ac, 3-[2,6-difluoro-4-[4-[(3S)-3-methylmorpholin-4-yl]-6-(2-methylsulfonylpropan-2-yl)pyrimidin-2-yl]phenyl]-1-ethyl-urea]
26 | 38 | C[C@H]1COCCN1c1cc(CS(C)(=O)=O)nc(-c2ccc(NC(=O)NCCc3c[nH]cn3)cc2)n1 [Example 24b, 3-[2-(1H-imidazol-4-yl)ethyl]-1-[4-[4-[(3S)-3-methylmorpholin-4-yl]-6-(methylsulfonylmethyl)pyrimidin-2-yl]phenyl]urea]
27 | 12 | CNC(=O)Nc1ncc(-c2nc(N3CCOC[C@@H]3C)cc(C(C)(C)S(C)(=O)=O)n2)cn1 [Example 24bh, 3-methyl-1-[5-[4-[(3S)-3-methylmorpholin-4-yl]-6-(2-methylsulfonylpropan-2-yl)pyrimidin-2-yl]pyrimidin-2-yl]urea]
28 | 430 | C[C@H]1COCCN1c1cc(C(C)(C)S(C)(=O)=O)nc(-c2ccc(NC(=O)NCc3cnn(C)c3)nc2)n1 [Example 24bi, 1-[5-[4-[(3S)-3-methylmorpholin-4-yl]-6-(2-methylsulfonylpropan-2-yl)pyrimidin-2-yl]pyridin-2-yl]-3-[(1-methylpyrazol-4-yl)methyl]urea]
29 | 51 | C[C@H]1COCCN1c1cc(C(C)(C)S(C)(=O)=O)nc(-c2ccc(NC(=O)NCCO)cc2)n1 [Example 24bj, 3-(2-hydroxyethyl)-1-[4-[4-[(3S)-3-methylmorpholin-4-yl]-6-(2-methylsulfonylpropan-2-yl)pyrimidin-2-yl]phenyl]urea]
30 | 560 | Cc1cnc(CNC(=O)Nc2ccc(-c3nc(CS(C)(=O)=O)cc(N4CCOC[C@@H]4C)n3)cc2)cn1 [Example 24c, 3-[4-[4-[(3S)-3-methylmorpholin-4-yl]-6-(methylsulfonylmethyl)pyrimidin-2-yl]phenyl]-1-[(5-methylpyrazin-2-yl)methyl]urea]
31 | 4400 | C[C@H]1COCCN1c1cc(CS(C)(=O)=O)nc(-c2ccc(NC(=O)NCc3ccccn3)cc2)n1 [Example 24d, 1-[4-[4-[(3S)-3-methylmorpholin-4-yl]-6-(methylsulfonylmethyl)pyrimidin-2-yl]phenyl]-3-(pyridin-2-ylmethyl)urea]
